Tested on: Mucor circinelloides
Assay: Antifungal activity against Mucor circinelloides R7B wild type strain assessed as reduction in spore germination at 100 ug/ml relative to control
Type: functional
Set-up: scale not given: the % may be the effect or the level left
Details: dose 100 µg/ml

| SMILES | Activity [%] |
| --- | --- |
| COc1cc(-c2ccccc2)nc2ccccc12 | 97.8 |
| O=[N+]([O-])c1ccc(Oc2cc(-c3ccccc3)nc3ccccc23)cc1 | 98.1 |
| O=[N+]([O-])c1ccc(Oc2cc(-c3cccc(Cl)c3)nc3ccccc23)cc1 | 32.7 |
| COc1cc(-c2ccc(F)cc2)nc2ccccc12 | 17.1 |
| c1ccc(Oc2cc(-c3ccccc3)nc3ccccc23)cc1 | 97.4 |
| Fc1ccc(-c2cc(Oc3ccccc3)c3ccccc3n2)cc1 | 39.8 |
| COc1ccc(-c2cc(OC)c3ccccc3n2)cc1OC | 97.1 |

Tested on: Mucor circinelloides
Assay: Antifungal activity against Mucor circinelloides M5 strain assessed as reduction in spore germination at 100 ug/ml relative to control
Type: functional
Set-up: scale not given: the % may be the effect or the level left
Details: dose 100 µg/ml

| SMILES | Activity [%] |
| --- | --- |
| COc1cc(-c2ccccc2)nc2ccccc12 | 95.8 |
| O=[N+]([O-])c1ccc(Oc2cc(-c3ccccc3)nc3ccccc23)cc1 | 98.2 |
| O=[N+]([O-])c1ccc(Oc2cc(-c3cccc(Cl)c3)nc3ccccc23)cc1 | 21.9 |
| COc1cc(-c2ccc(F)cc2)nc2ccccc12 | 20.6 |
| c1ccc(Oc2cc(-c3ccccc3)nc3ccccc23)cc1 | 97.9 |
| Fc1ccc(-c2cc(Oc3ccccc3)c3ccccc3n2)cc1 | 38.6 |
| COc1ccc(-c2cc(OC)c3ccccc3n2)cc1OC | 96.2 |

Tested on: Mucor circinelloides
Assay: Antifungal activity against Mucor circinelloides R7B wild type strain assessed as reduction in spore germination at 25 ug/ml relative to control
Type: functional
Set-up: scale not given: the % may be the effect or the level left
Details: dose 25 µg/ml

| SMILES | Activity [%] |
| --- | --- |
| COc1cc(-c2ccc(F)cc2)nc2ccccc12 | 73.1 |

Tested on: Mucor circinelloides
Assay: Antifungal activity against Mucor circinelloides M5 strain assessed as reduction in spore germination at 25 ug/ml relative to control
Type: functional
Set-up: scale not given: the % may be the effect or the level left
Details: dose 25 µg/ml

| SMILES | Activity [%] |
| --- | --- |
| COc1cc(-c2ccc(F)cc2)nc2ccccc12 | 78.4 |

Tested on: Mucor circinelloides
Assay: Antifungal activity against Mucor circinelloides R7B wild type strain assessed as reduction in spore germination at 50 ug/ml relative to control
Type: functional
Set-up: scale not given: the % may be the effect or the level left
Details: dose 50 µg/ml

| SMILES | Activity [%] |
| --- | --- |
| COc1cc(-c2ccc(F)cc2)nc2ccccc12 | 60.3 |

Tested on: Mucor circinelloides
Assay: Antifungal activity against Mucor circinelloides M5 strain assessed as reduction in spore germination at 50 ug/ml relative to control
Type: functional
Set-up: scale not given: the % may be the effect or the level left
Details: dose 50 µg/ml

| SMILES | Activity [%] |
| --- | --- |
| COc1cc(-c2ccc(F)cc2)nc2ccccc12 | 47.9 |

Tested on: Mucor circinelloides
Assay: Antifungal activity against Mucor circinelloides R7B wild type strain assessed as reduction in spore germination at 150 ug/ml relative to control
Type: functional
Set-up: scale not given: the % may be the effect or the level left
Details: dose 150 µg/ml

| SMILES | Activity [%] |
| --- | --- |
| COc1cc(-c2ccc(F)cc2)nc2ccccc12 | 12.6 |

Tested on: Mucor circinelloides
Assay: Antifungal activity against Mucor circinelloides M5 strain assessed as reduction in spore germination at 150 ug/ml relative to control
Type: functional
Set-up: scale not given: the % may be the effect or the level left
Details: dose 150 µg/ml

| SMILES | Activity [%] |
| --- | --- |
| COc1cc(-c2ccc(F)cc2)nc2ccccc12 | 14.9 |
